The target of data set [1] is T1, human peroxisome proliferator-activated receptor (PPAR)α (Homo sapiens, UniProt Q07869).
T1 sequence (Q07869 239-466 limits assumed): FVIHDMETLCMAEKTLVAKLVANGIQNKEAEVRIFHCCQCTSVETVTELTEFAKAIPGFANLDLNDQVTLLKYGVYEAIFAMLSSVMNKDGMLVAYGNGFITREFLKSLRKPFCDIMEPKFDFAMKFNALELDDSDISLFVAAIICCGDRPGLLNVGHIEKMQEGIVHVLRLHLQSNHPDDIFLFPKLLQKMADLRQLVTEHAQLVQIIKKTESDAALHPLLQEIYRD
Briefly: Transactivation assay for human PPARα (CHO cells, luciferase reporter). It is filed as cell-based. Also on record: expressed in transfected cells; host or cells: CHO cells. An excerpt:
Transactivation assay for human peroxisome proliferator-activated receptor (PPAR)α
To CHO cells cultured in a Dulbecco-modified Eagle's medium containing 10% delipidated fetal calf serum (FCS/DMEM), receptor plasmid that eXpresses fused protein of DNA-binding domain being transcription factor of yeast with ligand-binding domain of human type PPARα (Biochemistry, 1993, 32, 5598) its reporter plasmid (STRATAGENE Corp.), and luciferase plasmid of Renilla (Promega Corp.) as an internal standard were cotransfected with lipofectamine in the serum-free state. Thereafter, testing compound and (8S)-HETE being control compound were added to 10% FCS/DMEM and both luciferase activities were measured after 24 hours, which were corrected with internal standard.
Test of transcription activation on human peroxisome proliferator-activated receptor (PPAR)α
The test of transcription activation on human peroxisome proliferator-activated receptor (PPAR)α shown in Test example 1 was performed to obtain results shown in Table 19.
(Reporter assays use an easily measured gene product as a stand-in for the process of interest.)

For data set [2], the target named is T1, human peroxisome proliferator-activated receptor (PPAR)α. Nature of the data set: Binding assay to human PPARα (His-hPPARα-LBD, [3H] ligand). Set-up: expressed in transfected cells. How it is done:
Binding assay to human peroxisome proliferator-activated receptor (PPAR)α
A plasmid that eXpresses protein of human PPARα-ligand binding domain attached with histidine tag (His-hPPARα-LBD) was cultured by infecting to Escherichia coli (JM-109) and aimed protein was recovered and purified. [^3H]-5-[(2,4-dioxothiazolidine-5-yl)methyl]-2-methoxy-N-[[4-(trifluoromethyl)phenyl]methyl]benzamide (Amasham), testing compound and (8S)-HETE being control compound were incubated for 45 minutes at room temperature at various concentrations together with His-hPPARα-LBD protein in 10 mmol/l Tris hydrochloride buffer (pH 7.4) containing 50 mmol/l potassium chloride and 10 mmol/l dithiothreitol. After the reaction, amount of [^3H]-5-[(2,4-dioxothiazolidine-5-yl)methyl]-2-methoxy-N-[[4-(trifluoromethyl)phenyl]methyl]benzamide was determined by a liquid scintillation counter.

A further data set concerns SD strain male rats. Briefly: Test on lipid-lowering action in fructose-loaded-diet rats. It is filed as in vivo. The conditions noted are these: versus vehicle control. How it is done:
Test on Lipid-lowering Action
After SD strain male rats (Nippon Charles Liver) were bred from 8-(weeks old) with feed (Nippon Clear), test was started from 11-(weeks old). After (fasting) for 2 days, testing compound and Bezafibrate (30 mg/kg), being control compound, suspended into 0.5% solution of arabic gum were administered orally once a day for continuous 4 days. For the feed during administration period, AIN-93M modified fructose-loaded diet (Oriental Yeast) was used. After administration for 4 days, blood was collected from (trial) vein and the blood levels of triglyceride, total cholesterol, and free fatty acid were determined by enzymatic method.
The lowering rate of triglyceride in blood, overall cholesterol and free fatty acid was calculated, respectively, by determining the proportion of a figure obtained by subtracting average level of triglyceride in blood (or, average level of (total) cholesterol or level of free fatty acid) of dosage group from average level of triglyceride in blood (or, average level of (total) cholesterol or level of free fatty acid) of vehicle control group to average level of triglyceride in blood (or, average level of overall cholesterol or level of free fatty acid) of vehicle control group.

Setting [3] is: 30 mg/kg orally once a day for 4 days.
Where [4] appears, read: 10 mg/kg orally once a day for 4 days.
Where [5] appears, read: Table 19 (Test example 4), method of Test example 1, read-out: Transcriptional activity EC50.

For the compound `CC[C@@H](Cc1ccc(OC)c(C(=O)NCc2ccc(C(F)(F)F)cc2)c1)C(=O)O`, the melting point fell in the range of 128 to 130 °C.
Compound `COc1ccc(CC(C)(C)C(=O)O)cc1C(=O)NCc1ccc(C(F)(F)F)cc1` registered a melting point of 151 to 152 °C.
The compound `CCC(Cc1ccc(OC)c(C(=O)NCc2ccc(C(F)(F)F)cc2)c1)C(=O)O` (stereo not drawn) [46] came in with a melting point of 128 to 130 °C.
As to `CCCCC/C=C\C/C=C\C=C\[C@@H](O)C/C=C\CCCC(=O)O` [(8S) HETE, (8S)-HETE, reference compound], the EC50 is 1300 nM in data set [1] (Table 17, CHO cells, human PPARα LBD fusion, luciferase after 24 hours, read-out: Transcriptional activity EC50) and 170 nM in data set [2] (His-hPPARα-LBD, 45 minutes at room temperature, pH 7.4, read-out: Binding activity EC50).
As for `CC(C)(Oc1ccc(CCNC(=O)c2ccc(Cl)cc2)cc1)C(=O)O` [Bezafibrate, reference compound], in the data set with SD strain male rats (setting [3]), the “Lowering rate (%) Free fatty acid” value came to 37%, the “Lowering rate (%) Total cholesterol” value was 49% and the “Lowering rate (%) Triglyceride in blood” value turned out to be 64%.
`CCC(Cc1ccc(OC)c(C(=O)NCc2ccc(C(F)(F)F)cc2)c1)C(=O)O` (stereo not drawn) [Example 20, 2-Ethyl-3-[4-methoxy-3-[N-[[4-(trifluoromethyl)phenyl]-methyl]carbamoyl]phenyl]propanoic acid] showed a melting point of 144.5 to 146.5 °C. The compound further gave an EC50 in data set [1] of 11.5 nM. In data set [2], this compound gave an EC50 of 190 nM. Moreover, in the data set with SD strain male rats (setting [4]), the “Lowering rate (%) Free fatty acid” value is 77%, the “Lowering rate (%) Total cholesterol” value was found to be 25% and the “Lowering rate (%) Triglyceride in blood” value came to 53%. In addition, in the data set on SD strain male rats (setting [3]), the “Lowering rate (%) Free fatty acid” value is recorded as 53%, the “Lowering rate (%) Total cholesterol” value is 55% and the “Lowering rate (%) Triglyceride in blood” value is given as 56%.
Compound `CCC(Cc1ccc(OC)c(C(=O)NCc2ccc(-c3ccccc3)cc2)c1)C(=O)O` (stereo not drawn) [Example 22] displayed a melting point of 158.5 to 159.5 °C. In data set [1], this compound came in with an EC50 of 110 nM. Moreover, the midpoint of the response in data set [2], the EC50, lay at 430 nM.
As for `CCC(Cc1ccc(OC)c(C(=O)NCc2ccc(Oc3ccccc3)cc2)c1)C(=O)O` (stereo not drawn) [Example 23], the EC50 in data set [1] was found to be 24 nM; in data set [2] it was 740 nM.
Compound `COc1ccc(CC(OC)C(=O)O)cc1C(=O)NCc1ccc(C(F)(F)F)cc1` (stereo not drawn) [Example 24] returned a melting point of 161 to 163 °C. Further, a half-maximal response in data set [1] (EC50) required 180 nM. For the same compound, a half-maximal response in data set [2] (EC50) required 560 nM.
Taken in the same sequence, the figures for `COc1ccc(CC(C)C(=O)O)cc1C(=O)NCc1ccc(C(F)(F)F)cc1` (stereo not drawn) [Example 30] were 155 to 156 °C, 200 nM and 840 nM.
Regarding `CC[C@@H](Cc1ccc(OC)c(C(=O)NCc2ccc(Oc3ccc(F)cc3)cc2)c1)C(=O)O` [Example 174, (S)-(+)-2-ethyl-3-[4-methoxy-3-[N-[(4-fluorophenoxyphenyl)methyl]carbamoyl]phenyl]propanoic acid], the EC50 in data set [1] (setting [5]) was found to be 24 nM.
`CCC[C@@H](Cc1ccc(OC)c(C(=O)NCc2ccc(Oc3ccccc3)cc2)c1)C(=O)O` [Example 178] showed a melting point of 85 to 86 °C. For the same compound, in data set [1] (setting [5]), the EC50 turned out to be 94 nM.
Take `CCC[C@@H](Cc1ccc(OC)c(C(=O)NCc2ccc(Oc3ccc(F)cc3)cc2)c1)C(=O)O` [Example 179]: the melting point is 126 to 127 °C. Also, in data set [1] (setting [5]), the EC50 is 9.2 nM.

By melting point is commonly meant the temperature of the solid-liquid transition. As a reminder, the EC50 is the midpoint of the concentration-response curve.
